target: T1, PDE7B protein (Bos taurus) (UniProt A6QP37); assay: Inhibition of Bos taurus (bovine) heart cAMP-dependent phosphodiesterase assessed as inhibition of cyclic AMP to 5' AMP after 20 min by spectrophotometry relative to theophylline
T1 sequence (whole entry): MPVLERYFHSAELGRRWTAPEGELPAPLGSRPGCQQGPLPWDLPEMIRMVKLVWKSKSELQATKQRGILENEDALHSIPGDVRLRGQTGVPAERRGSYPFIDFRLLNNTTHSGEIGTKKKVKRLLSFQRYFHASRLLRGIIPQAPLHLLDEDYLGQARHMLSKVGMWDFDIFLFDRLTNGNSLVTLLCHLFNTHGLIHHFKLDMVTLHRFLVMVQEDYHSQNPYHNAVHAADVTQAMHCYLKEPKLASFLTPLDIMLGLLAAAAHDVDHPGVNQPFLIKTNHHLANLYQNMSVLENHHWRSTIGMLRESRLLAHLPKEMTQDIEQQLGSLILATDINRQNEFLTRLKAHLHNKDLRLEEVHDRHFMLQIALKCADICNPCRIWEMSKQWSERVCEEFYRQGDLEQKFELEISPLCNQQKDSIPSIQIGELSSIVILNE

| Ratio | Structure (SMILES) |
| --- | --- |
| 1.38 | CCOc1ccc2nc(-n3c(-c4ccccc4)nc4ccccc4c3=O)sc2c1 |
| 1.21 | CCOc1cccc2sc(-n3c(-c4ccccc4)nc4c(Br)cc(Br)cc4c3=O)nc12 |
| 1.18 | COc1ccc2sc(-n3c(-c4ccccc4)nc4c(Br)cc(Br)cc4c3=O)nc2c1 |
| 1.27 | Cc1cccc2sc(-n3c(-c4ccccc4)nc4ccccc4c3=O)nc12 |
| 1.14 | Cc1cccc2sc(-n3c(-c4ccccc4)nc4c(Br)cc(Br)cc4c3=O)nc12 |
| 1.35 | Cc1cc(C)c2nc(-n3c(-c4ccccc4)nc4ccccc4c3=O)sc2c1 |
| 0.844 | O=c1c2cc(Br)cc(Br)c2nc(-c2ccccc2)n1-c1nc2cc(Cl)ccc2s1 |
| 1.22 | O=c1c2ccccc2nc(-c2ccccc2)n1-c1nc2ccccc2s1 |
| 1.18 | COc1cccc2sc(-n3c(-c4ccccc4)nc4c(Br)cc(Br)cc4c3=O)nc12 |
| 1.2 | COc1ccc2nc(-n3c(-c4ccccc4)nc4c(Br)cc(Br)cc4c3=O)sc2c1 |
| 1.34 | COc1ccc2sc(-n3c(-c4ccccc4)nc4ccccc4c3=O)nc2c1 |

The next lines start with the compound.

| Structure (SMILES) | Ratio |
| --- | --- |
| Cc1ccc2sc(-n3c(-c4ccccc4)nc4ccccc4c3=O)nc2c1 | 1.29 |
| O=c1c2ccccc2nc(-c2ccccc2)n1-c1nc2cc(Cl)ccc2s1 | 1.21 |
| CCOc1cccc2sc(-n3c(-c4ccccc4)nc4ccccc4c3=O)nc12 | 1.38 |
| O=c1c2cc(Br)cc(Br)c2nc(-c2ccccc2)n1-c1nc2ccc(Br)cc2s1 | 0.927 |
| CCOc1ccc2nc(-n3c(-c4ccccc4)nc4c(Br)cc(Br)cc4c3=O)sc2c1 | 1.19 |
| Cn1c(=O)c2[nH]cnc2n(C)c1=O | 1 |
| COc1cccc2sc(-n3c(-c4ccccc4)nc4ccccc4c3=O)nc12 | 1.33 |
| O=c1c2cc(Br)cc(Br)c2nc(-c2ccccc2)n1-c1nc2ccc([N+](=O)[O-])cc2s1 | 0.869 |
| Cc1ccc2sc(-n3c(-c4ccccc4)nc4c(Br)cc(Br)cc4c3=O)nc2c1 | 1.13 |
| O=c1c2cc(Br)cc(Br)c2nc(-c2ccccc2)n1-c1nc2ccccc2s1 | 1.08 |
| Cc1cc(C)c2nc(-n3c(-c4ccccc4)nc4c(Br)cc(Br)cc4c3=O)sc2c1 | 1.17 |
| CCOc1ccc2sc(-n3c(-c4ccccc4)nc4ccccc4c3=O)nc2c1 | 1.41 |
| CCOc1ccc2sc(-n3c(-c4ccccc4)nc4c(Br)cc(Br)cc4c3=O)nc2c1 | 1.22 |
| COc1ccc2nc(-n3c(-c4ccccc4)nc4ccccc4c3=O)sc2c1 | 1.35 |
| O=c1c2ccccc2nc(-c2ccccc2)n1-c1nc2ccc(Br)cc2s1 | 1.28 |
| O=c1c2ccccc2nc(-c2ccccc2)n1-c1nc2ccc([N+](=O)[O-])cc2s1 | 1.47 |
